Literature values in patent publication US11013777B2, “Aronia extract for enhancing reaction time and attention” (BioActor BV, priority 2017, dated 2021).

share of the total metabolites found in plasma (humans, plasma) | absorption in the small intestine (in vivo) | glucuronidated share of the total anthocyanins in plasma and urine (in vivo) | Compound | appearance in plasma post-ingestion (in vivo)
around 65% | – | – | OC[C@H]1O[C@@H](Oc2cc3c(O)cc(O)cc3[o+]c2-c2ccc(O)c(O)c2)[C@H](O)[C@@H](O)[C@H]1O [cyanidin-3-galactoside] | –
– | poor absorption | approximately 55% | anthocyanins | Thirty minutes post-ingestion, anthocyanins can be measured in plasma
